Assay results published in PubChem BioAssay AID1919002 (Molecular Pharmacology Branch, DTP, NCI, 2023).
pIC50: −log10 of the molar value. Several values for one entry are separate records, joined by “and”; a condition that tells them apart may be missing. Identical values can stand only once.

Tested on: 743489-274-T-PDC complex spheroid growth
Assay: Anticancer human tumor 743489-274-T-PDC patient-derived renal cell carcinoma cell line growth inhibition [AhR]
Conditions: for viability, T/C: stronger effect = lower value
Method in brief: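 Spheroids combined tumor cells with HUVEC endothelial cells and human MSCs as stroma. AhR antagonists were paired with standard or investigational drugs, each dosed in half-log steps down from near clinical Cmax, or from 10 microM where Cmax was unknown.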

[1] = curve of first compound, second compound 0.1 µM
[2] = curve of first compound, second compound 0.316 µM
[3] = curve of first compound, second compound 1 µM
[4] = curve of first compound, second compound 3.16 µM
[5] = curve of first compound, second compound 10 µM
[6] = second compound 0.1 µM, first compound 0.0316 µM
[7] = second compound 0.1 µM, first compound 0.1 µM
[8] = second compound 0.1 µM, first compound 0.316 µM
[9] = second compound 0.1 µM, first compound 1 µM
[10] = second compound 0.1 µM, first compound 3.16 µM
[11] = second compound 0.1 µM, first compound 10 µM
[12] = second compound 0.316 µM, first compound 0.0316 µM
[13] = second compound 0.316 µM, first compound 0.1 µM
[14] = second compound 0.316 µM, first compound 0.316 µM
[15] = second compound 0.316 µM, first compound 1 µM
[16] = second compound 0.316 µM, first compound 3.16 µM
[17] = second compound 0.316 µM, first compound 10 µM
[18] = second compound 1 µM, first compound 0.0316 µM
[19] = second compound 1 µM, first compound 0.1 µM
[20] = second compound 1 µM, first compound 0.316 µM
[21] = second compound 1 µM, first compound 1 µM
[22] = second compound 1 µM, first compound 3.16 µM
[23] = second compound 1 µM, first compound 10 µM
[24] = second compound 3.16 µM, first compound 0.0316 µM
[25] = second compound 3.16 µM, first compound 0.1 µM
[26] = second compound 3.16 µM, first compound 0.316 µM
[27] = second compound 3.16 µM, first compound 1 µM
[28] = second compound 3.16 µM, first compound 3.16 µM
[29] = second compound 3.16 µM, first compound 10 µM
[30] = second compound 10 µM, first compound 0.0316 µM
[31] = second compound 10 µM, first compound 0.1 µM
[32] = second compound 10 µM, first compound 0.316 µM
[33] = second compound 10 µM, first compound 1 µM
[34] = second compound 10 µM, first compound 3.16 µM
[35] = second compound 10 µM, first compound 10 µM
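Note: spheroids exposed to agents for 7 days before readout.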
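Throughout, for viability, T/C: 100% = DMSO vehicle control wells.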

CCc1c2c(nc3ccc(O)cc13)-c1cc3c(c(=O)n1C2)COC(=O)[C@]3(O)CC + CC(CO)NC(=O)c1cc(-c2ccc(Cl)cc2)nn(-c2cnn(C)c2)c1=O
pIC50 [1]: < 6.52 | pIC50 [2]: < 6.52 | pIC50 [3]: < 6.52 | pIC50 [4]: < 6.52 | pIC50 [5]: < 6.52 | viability, T/C (second compound 0.1 µM, first compound 0.000949 µM): 107% | viability, T/C (second compound 0.1 µM, first compound 0.003 µM): 105% | viability, T/C (second compound 0.1 µM, first compound 0.00949 µM): 87% | viability, T/C (second compound 0.1 µM, first compound 0.03 µM): 88.1% | viability, T/C (second compound 0.1 µM, first compound 0.0949 µM): 70.5% | viability, T/C (second compound 0.1 µM, first compound 0.3 µM): 64.5% | viability, T/C (second compound 0.316 µM, first compound 0.000949 µM): 87.7% | viability, T/C (second compound 0.316 µM, first compound 0.003 µM): 94% | viability, T/C (second compound 0.316 µM, first compound 0.00949 µM): 103% | viability, T/C (second compound 0.316 µM, first compound 0.03 µM): 78.7% | viability, T/C (second compound 0.316 µM, first compound 0.0949 µM): 71.5% | viability, T/C (second compound 0.316 µM, first compound 0.3 µM): 55.8% | viability, T/C (second compound 1 µM, first compound 0.000949 µM): 98.4% | viability, T/C (second compound 1 µM, first compound 0.003 µM): 88.7% | viability, T/C (second compound 1 µM, first compound 0.00949 µM): 91.6% | viability, T/C (second compound 1 µM, first compound 0.03 µM): 88.7% | viability, T/C (second compound 1 µM, first compound 0.0949 µM): 73.1% | viability, T/C (second compound 1 µM, first compound 0.3 µM): 68.4% | viability, T/C (second compound 3.16 µM, first compound 0.000949 µM): 94.2% | viability, T/C (second compound 3.16 µM, first compound 0.003 µM): 100% | viability, T/C (second compound 3.16 µM, first compound 0.00949 µM): 97.9% | viability, T/C (second compound 3.16 µM, first compound 0.03 µM): 84.3% | viability, T/C (second compound 3.16 µM, first compound 0.0949 µM): 76.8% | viability, T/C (second compound 3.16 µM, first compound 0.3 µM): 59.3% | viability, T/C (second compound 10 µM, first compound 0.000949 µM): 87.7% | viability, T/C (second compound 10 µM, first compound 0.003 µM): 93.1% | viability, T/C (second compound 10 µM, first compound 0.00949 µM): 82.7% | viability, T/C (second compound 10 µM, first compound 0.03 µM): 97.7% | viability, T/C (second compound 10 µM, first compound 0.0949 µM): 79.7% | viability, T/C (second compound 10 µM, first compound 0.3 µM): 65.2%

COc1cc(C2c3cc4c(cc3C(OC3OC5COC(C)OC5C(O)C3O)C3COC(=O)C23)OCO4)cc(OC)c1O (configuration not stated)
viability, T/C (compound 0.0316 µM): 98.8% and 103% and 94.7% | viability, T/C (compound 0.1 µM): 105% and 103% and 102% | viability, T/C (compound 0.316 µM): 95.7% and 114% and 106% | viability, T/C (compound 1 µM): 94.6% and 100% and 98.3% | viability, T/C (compound 3.16 µM): 95.8% and 108% and 98.9% | viability, T/C (compound 10 µM): 80% and 91.7% and 92.8% | pIC50 (curve of compound): < 5.00

O=C(C=Cc1cccc(S(=O)(=O)Nc2ccccc2)c1)NO + CC(CO)NC(=O)c1cc(-c2ccc(Cl)cc2)nn(-c2cnn(C)c2)c1=O
pIC50 [1]: 5.03 | pIC50 [2]: 5.11 | pIC50 [3]: 5.02 | pIC50 [4]: 5.08 | pIC50 [5]: 5.13 | viability, T/C [6]: 97.6% | viability, T/C [7]: 87.1% | viability, T/C [8]: 86.9% | viability, T/C [9]: 80.3% | viability, T/C [10]: 76.4% | viability, T/C [11]: 47.1% | viability, T/C [12]: 82.4% | viability, T/C [13]: 88.5% | viability, T/C [14]: 74.4% | viability, T/C [15]: 76.9% | viability, T/C [16]: 61.8% | viability, T/C [17]: 46.4% | viability, T/C [18]: 82.5% | viability, T/C [19]: 89% | viability, T/C [20]: 84% | viability, T/C [21]: 75.8% | viability, T/C [22]: 62.7% | viability, T/C [23]: 49.4% | viability, T/C [24]: 82.5% | viability, T/C [25]: 80% | viability, T/C [26]: 76.2% | viability, T/C [27]: 70.2% | viability, T/C [28]: 59.2% | viability, T/C [29]: 48.3% | viability, T/C [30]: 85.3% | viability, T/C [31]: 87.8% | viability, T/C [32]: 83.2% | viability, T/C [33]: 74.7% | viability, T/C [34]: 66.9% | viability, T/C [35]: 43.9%

COc1ccc([C@@H](O)c2cc(-c3ncnc4cc(N5CCOCC5)ccc34)c(F)cc2Cl)nn1 + Cc1ccccc1N=Nc1ccc(NC(=O)c2ccnn2C)c(C)c1
pIC50 [1]: 5.58 | pIC50 [2]: 5.59 | pIC50 [3]: 5.63 | pIC50 [4]: 5.65 | pIC50 [5]: 5.76 | viability, T/C [6]: 99.7% | viability, T/C [7]: 87.6% | viability, T/C [8]: 95.7% | viability, T/C [9]: 80.1% | viability, T/C [10]: 44.1% | viability, T/C [11]: 31.9% | viability, T/C [12]: 96.2% | viability, T/C [13]: 89.1% | viability, T/C [14]: 92.4% | viability, T/C [15]: 77.2% | viability, T/C [16]: 44.1% | viability, T/C [17]: 22.4% | viability, T/C [18]: 101% | viability, T/C [19]: 87% | viability, T/C [20]: 86.5% | viability, T/C [21]: 68.9% | viability, T/C [22]: 42.2% | viability, T/C [23]: 22.8% | viability, T/C [24]: 84.5% | viability, T/C [25]: 81.5% | viability, T/C [26]: 87.5% | viability, T/C [27]: 77.7% | viability, T/C [28]: 38.4% | viability, T/C [29]: 19.1% | viability, T/C [30]: 86.2% | viability, T/C [31]: 90.2% | viability, T/C [32]: 81.5% | viability, T/C [33]: 62.2% | viability, T/C [34]: 36.1% | viability, T/C [35]: 18.8%
